Square brackets hold non-standard residues; d marks the D form. Peptide text beside a SMILES is read from it. Phe(4-Cl) = N[C@@H](Cc1ccc(Cl)cc1)C(=O)O; Cha = N[C@@H](CC1CCCCC1)C(=O)O
Molecular target: T1, Androgen receptor (Homo sapiens, UniProt P10275)
T1 sequence (P10275 whole entry): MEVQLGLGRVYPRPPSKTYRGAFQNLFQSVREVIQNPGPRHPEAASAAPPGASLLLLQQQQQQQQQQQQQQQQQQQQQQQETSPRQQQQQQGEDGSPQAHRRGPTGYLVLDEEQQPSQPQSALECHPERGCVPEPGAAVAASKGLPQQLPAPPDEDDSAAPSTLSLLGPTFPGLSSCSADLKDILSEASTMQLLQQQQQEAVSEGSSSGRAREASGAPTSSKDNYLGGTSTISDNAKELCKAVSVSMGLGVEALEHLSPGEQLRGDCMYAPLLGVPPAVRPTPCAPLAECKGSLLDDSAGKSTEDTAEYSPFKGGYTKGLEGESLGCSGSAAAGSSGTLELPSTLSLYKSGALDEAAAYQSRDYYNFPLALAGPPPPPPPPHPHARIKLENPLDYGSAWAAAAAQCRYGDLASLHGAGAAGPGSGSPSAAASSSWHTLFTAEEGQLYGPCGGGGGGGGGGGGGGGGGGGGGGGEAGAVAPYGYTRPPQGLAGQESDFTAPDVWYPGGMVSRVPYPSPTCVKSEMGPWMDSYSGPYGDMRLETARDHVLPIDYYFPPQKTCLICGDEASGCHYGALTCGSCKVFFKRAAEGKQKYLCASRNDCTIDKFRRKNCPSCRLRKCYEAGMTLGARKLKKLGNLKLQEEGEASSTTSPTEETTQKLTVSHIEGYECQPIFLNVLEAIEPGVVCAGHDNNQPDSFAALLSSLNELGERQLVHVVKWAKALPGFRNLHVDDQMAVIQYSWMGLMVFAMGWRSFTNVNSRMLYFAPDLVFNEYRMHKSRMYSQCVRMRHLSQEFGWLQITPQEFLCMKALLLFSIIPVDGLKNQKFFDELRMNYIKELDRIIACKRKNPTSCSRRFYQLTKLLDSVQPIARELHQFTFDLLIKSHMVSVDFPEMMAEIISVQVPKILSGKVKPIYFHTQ
Assay: Displacement of fluorescein-CSSRFESLFAGEKESR from human androgen receptor-LBD after 1 hr by fluorescence polarization assay

Row | SMILES | Ki [nM]
1 | CC[C@H](C)[C@H](NC(=O)[C@H](CS)NC(=O)[C@H](Cc1ccccc1)NC(=O)[C@H](CC(C)C)NC(=O)[C@H](CCC(=O)O)NC(=O)[C@H](CS)NC(=O)[C@H](Cc1ccccc1)NC(=O)[C@H](CCCNC(=N)N)NC(=O)[C@@H](N)CC(N)=O)C(=O)N[C@@H](CCC(N)=O)C(=O)NCC(=O)N[C@H](C(=O)NCC(=O)N[C@@H](CC(=O)O)C(=O)N[C@H](C(=O)N[C@@H](CCCCN)C(=O)N[C@@H](C)C(=O)N[C@@H](CS)C(=O)N[C@@H](CCC(=O)O)C(=O)N[C@@H](Cc1c[nH]c2ccccc12)C(=O)N[C@@H](C)C(=O)N[C@@H](CS)C(=O)N[C@@H](CCC(N)=O)C(=O)O)C(C)C)[C@@H](C)O (H-NRFCELFCIQGTGDVKACEWACQ-OH) | 4100
2 | CC[C@H](C)[C@H](NC(=O)[C@H](CS)NC(=O)[C@H](Cc1ccc(Cl)cc1)NC(=O)[C@H](CC(C)C)NC(=O)[C@H](CCC(=O)O)NC(=O)[C@H](CS)NC(=O)[C@H](Cc1ccccc1)NC(=O)[C@H](CCCNC(=N)N)NC(=O)[C@@H](N)CC(N)=O)C(=O)N[C@@H](CCC(N)=O)C(=O)NCC(=O)N[C@H](C(=O)NCC(=O)N[C@@H](CC(=O)O)C(=O)N[C@H](C(=O)N[C@@H](CCCCN)C(=O)N[C@@H](C)C(=O)N[C@@H](CS)C(=O)N[C@@H](CCC(=O)O)C(=O)N[C@@H](Cc1c[nH]c2ccccc12)C(=O)N[C@@H](C)C(=O)N[C@@H](CS)C(=O)N[C@@H](CCC(N)=O)C(=O)O)C(C)C)[C@@H](C)O (H-NRFCEL[Phe(4-Cl)]CIQGTGDVKACEWACQ-OH) | 32000
3 | CC[C@H](C)[C@H](NC(=O)[C@H](CS)NC(=O)[C@H](Cc1ccccc1)NC(=O)[C@H](CC(C)C)NC(=O)[C@H](CCC(=O)O)NC(=O)[C@H](CS)NC(=O)[C@H](Cc1ccccc1)NC(=O)[C@H](CC(C)C)NC(=O)[C@@H](N)CC(N)=O)C(=O)N[C@@H](CCC(N)=O)C(=O)NCC(=O)N[C@H](C(=O)NCC(=O)N[C@@H](CC(=O)O)C(=O)N[C@H](C(=O)N[C@@H](CCCCN)C(=O)N[C@@H](C)C(=O)N[C@@H](CS)C(=O)N[C@@H](CCC(=O)O)C(=O)N[C@@H](Cc1c[nH]c2ccccc12)C(=O)N[C@@H](C)C(=O)N[C@@H](CS)C(=O)N[C@@H](CCC(N)=O)C(=O)O)C(C)C)[C@@H](C)O (H-NLFCELFCIQGTGDVKACEWACQ-OH) | 10000
4 | CC(C)C[C@H](NC(=O)[C@H](CS)NC(=O)[C@H](CC(N)=O)NC(=O)[C@H](Cc1ccc(Cl)cc1)NC(=O)[C@H](Cc1ccc(O)cc1)NC(=O)[C@H](CS)NC(=O)[C@H](C)N)C(=O)N[C@@H](Cc1ccccc1)C(=O)N[C@@H](CCC(=O)O)C(=O)NCC(=O)N[C@@H](CC(N)=O)C(=O)N[C@@H](CC(=O)O)C(=O)N[C@@H](CCC(=O)O)C(=O)N[C@@H](CCC(=O)O)C(=O)N[C@H](C(=O)N[C@@H](CS)C(=O)N[C@@H](CCCCN)C(=O)N[C@@H](CCC(=O)O)C(=O)N[C@@H](Cc1c[nH]c2ccccc12)C(=O)N[C@@H](CS)C(=O)O)[C@@H](C)O (H-ACY[Phe(4-Cl)]NCLFEGNDEETCKEWC-OH) | 3000
5 | CC[C@H](C)[C@H](NC(=O)[C@H](CS)NC(=O)[C@H](Cc1ccccc1)NC(=O)[C@H](CC(C)C)NC(=O)[C@H](CCC(=O)O)NC(=O)[C@H](CS)NC(=O)[C@H](Cc1ccccc1)NC(=O)[C@H](CCCNC(=N)N)NC(=O)[C@@H](N)CCCCN)C(=O)N[C@@H](CCC(N)=O)C(=O)NCC(=O)N[C@H](C(=O)NCC(=O)N[C@@H](CC(=O)O)C(=O)N[C@H](C(=O)N[C@@H](CCCCN)C(=O)N[C@@H](C)C(=O)N[C@@H](CS)C(=O)N[C@@H](CCC(=O)O)C(=O)N[C@@H](Cc1c[nH]c2ccccc12)C(=O)N[C@@H](C)C(=O)N[C@@H](CS)C(=O)N[C@@H](CCC(N)=O)C(=O)O)C(C)C)[C@@H](C)O (H-KRFCELFCIQGTGDVKACEWACQ-OH) | 1900

Continued by falling Ki, values first:

Row | Ki [nM] | SMILES
6 | 13000 | CC[C@H](C)[C@H](NC(=O)[C@H](CS)NC(=O)[C@H](CC(C)C)NC(=O)[C@H](CC(C)C)NC(=O)[C@H](CCC(=O)O)NC(=O)[C@H](CS)NC(=O)[C@H](CC(C)C)NC(=O)[C@H](CCCNC(=N)N)NC(=O)[C@@H](N)CC(N)=O)C(=O)N[C@@H](CCC(N)=O)C(=O)NCC(=O)N[C@H](C(=O)NCC(=O)N[C@@H](CC(=O)O)C(=O)N[C@H](C(=O)N[C@@H](CCCCN)C(=O)N[C@@H](C)C(=O)N[C@@H](CS)C(=O)N[C@@H](CCC(=O)O)C(=O)N[C@@H](Cc1c[nH]c2ccccc12)C(=O)N[C@@H](C)C(=O)N[C@@H](CS)C(=O)N[C@@H](CCC(N)=O)C(=O)O)C(C)C)[C@@H](C)O (H-NRLCELLCIQGTGDVKACEWACQ-OH)
7 | 2700 | CC[C@H](C)[C@H](NC(=O)[C@H](CS)NC(=O)[C@H](Cc1ccccc1)NC(=O)[C@H](CC(C)C)NC(=O)[C@H](CCCCN)NC(=O)[C@H](CS)NC(=O)[C@H](Cc1ccccc1)NC(=O)[C@H](CCCNC(=N)N)NC(=O)[C@@H](N)CC(N)=O)C(=O)N[C@@H](CCC(N)=O)C(=O)NCC(=O)N[C@H](C(=O)NCC(=O)N[C@@H](CC(=O)O)C(=O)N[C@H](C(=O)N[C@@H](CCCCN)C(=O)N[C@@H](C)C(=O)N[C@@H](CS)C(=O)N[C@@H](CCC(=O)O)C(=O)N[C@@H](Cc1c[nH]c2ccccc12)C(=O)N[C@@H](C)C(=O)N[C@@H](CS)C(=O)N[C@@H](CCC(N)=O)C(=O)O)C(C)C)[C@@H](C)O (H-NRFCKLFCIQGTGDVKACEWACQ-OH)
8 | 2300 | CC(C)C[C@H](NC(=O)[C@H](CS)NC(=O)[C@H](CC(N)=O)NC(=O)[C@H](Cc1ccccc1)NC(=O)[C@H](Cc1ccc(O)cc1)NC(=O)[C@H](CS)NC(=O)[C@H](C)N)C(=O)N[C@@H](CC1CCCCC1)C(=O)N[C@@H](CCC(=O)O)C(=O)NCC(=O)N[C@@H](CC(N)=O)C(=O)N[C@@H](CC(=O)O)C(=O)N[C@@H](CCC(=O)O)C(=O)N[C@@H](CCC(=O)O)C(=O)N[C@H](C(=O)N[C@@H](CS)C(=O)N[C@@H](CCCCN)C(=O)N[C@@H](CCC(=O)O)C(=O)N[C@@H](Cc1c[nH]c2ccccc12)C(=O)N[C@@H](CS)C(=O)O)[C@@H](C)O (H-ACYFNCL[Cha]EGNDEETCKEWC-OH)
9 | 2100 | CC[C@H](C)[C@H](NC(=O)[C@H](CS)NC(=O)[C@H](Cc1ccccc1)NC(=O)[C@H](CC(C)C)NC(=O)[C@H](CCC(=O)O)NC(=O)[C@H](CS)NC(=O)[C@H](Cc1ccccc1)NC(=O)[C@H](CCCNC(=N)N)NC(=O)[C@@H](N)CC(N)=O)C(=O)N[C@@H](CCC(N)=O)C(=O)N[C@@H](CC(=O)O)C(=O)N[C@H](C(=O)NCC(=O)N[C@@H](CC(=O)O)C(=O)N[C@H](C(=O)N[C@@H](CCCCN)C(=O)N[C@@H](C)C(=O)N[C@@H](CS)C(=O)N[C@@H](CCC(=O)O)C(=O)N[C@@H](Cc1c[nH]c2ccccc12)C(=O)N[C@@H](C)C(=O)N[C@@H](CS)C(=O)N[C@@H](CCC(N)=O)C(=O)O)C(C)C)[C@@H](C)O (H-NRFCELFCIQDTGDVKACEWACQ-OH)
10 | 2100 | CC[C@H](C)[C@H](NC(=O)[C@H](CS)NC(=O)[C@H](Cc1ccccc1)NC(=O)[C@H](CC(C)C)NC(=O)[C@H](CCC(=O)O)NC(=O)[C@H](CS)NC(=O)[C@H](Cc1ccccc1)NC(=O)[C@H](CCCNC(=N)N)NC(=O)[C@@H](N)CC(N)=O)C(=O)N[C@@H](CCC(=O)O)C(=O)NCC(=O)N[C@H](C(=O)NCC(=O)N[C@@H](CC(=O)O)C(=O)N[C@H](C(=O)N[C@@H](CCCCN)C(=O)N[C@@H](C)C(=O)N[C@@H](CS)C(=O)N[C@@H](CCC(=O)O)C(=O)N[C@@H](Cc1c[nH]c2ccccc12)C(=O)N[C@@H](C)C(=O)N[C@@H](CS)C(=O)N[C@@H](CCC(N)=O)C(=O)O)C(C)C)[C@@H](C)O (H-NRFCELFCIEGTGDVKACEWACQ-OH)
11 | 1300 | CC[C@H](C)[C@H](NC(=O)[C@H](CS)NC(=O)[C@H](Cc1ccccc1)NC(=O)[C@H](CC(C)C)NC(=O)[C@H](CCC(=O)O)NC(=O)[C@H](CS)NC(=O)[C@H](Cc1ccccc1)NC(=O)[C@H](CCCNC(=N)N)NC(=O)[C@@H](N)CC(N)=O)C(=O)N[C@@H](CCC(N)=O)C(=O)NCC(=O)N[C@H](C(=O)NCC(=O)N[C@@H](CC(=O)O)C(=O)N[C@H](C(=O)N[C@@H](CCCCN)C(=O)N[C@@H](C)C(=O)N[C@@H](CS)C(=O)N[C@@H](CCC(=O)O)C(=O)N[C@@H](CCC(=O)O)C(=O)N[C@@H](C)C(=O)N[C@@H](CS)C(=O)N[C@@H](CCC(N)=O)C(=O)O)C(C)C)[C@@H](C)O (H-NRFCELFCIQGTGDVKACEEACQ-OH)
12 | 200 | CC(C)C[C@H](NC(=O)[C@H](CS)NC(=O)[C@H](CC(N)=O)NC(=O)[C@H](Cc1ccccc1)NC(=O)[C@H](Cc1ccc(O)cc1)NC(=O)[C@H](CS)NC(=O)[C@H](C)N)C(=O)N[C@@H](Cc1ccccc1)C(=O)N[C@@H](CCC(=O)O)C(=O)NCC(=O)N[C@@H](CCC(=O)O)C(=O)N[C@@H](CC(=O)O)C(=O)N[C@@H](CCC(=O)O)C(=O)N[C@@H](CCC(=O)O)C(=O)N[C@H](C(=O)N[C@@H](CS)C(=O)N[C@@H](CCCCN)C(=O)N[C@@H](CCC(=O)O)C(=O)N[C@@H](Cc1c[nH]c2ccccc12)C(=O)N[C@@H](CS)C(=O)O)[C@@H](C)O (H-ACYFNCLFEGEDEETCKEWC-OH)
